Earlier results in US20120294937A1, “NEW PHARMACEUTICAL DOSAGE FORM FOR THE TREATMENT OF GASTRIC ACID-RELATED DISORDERS” (NOVARTIS AG, priority 2009, published 2012).

Test system: stomach acid pH

NC(N)=Nc1nc(CSCCC(N)=NS(N)(=O)=O)cs1 [famotidine]
time stomach acid controlled at pH>4 (Day 1, clinical setting): 54 % of the day
percentage of time controlling stomach acid (Day 8, steady state for omeprazole reached, clinical setting): 48 % of the day
